Assay results from ChEMBL document CHEMBL4507258 (2021).

Columns and labels:
[1] = molecular target: 3-phosphoinositide-dependent protein kinase 1 (Homo sapiens) (UniProt O15530); details: Compound concentration 1000.0 nM
[2] = molecular target: Serine/threonine-protein kinase pim-2 (Homo sapiens) (UniProt Q9P1W9); details: Compound concentration 1000.0 nM
[3] = molecular target: Serine/threonine-protein kinase Nek11 (Homo sapiens) (UniProt Q8NG66); details: Compound concentration 1000.0 nM
[4] = system: Receptor-type tyrosine-protein kinase FLT3 (Homo sapiens), P36888 [UNDEFINED MUTATION]; details: Compound concentration 1000.0 nM
Chain of Receptor-type tyrosine-protein kinase FLT3 (Homo sapiens), P36888 [UNDEFINED MUTATION] (P36888 whole entry, looked up, change not shown): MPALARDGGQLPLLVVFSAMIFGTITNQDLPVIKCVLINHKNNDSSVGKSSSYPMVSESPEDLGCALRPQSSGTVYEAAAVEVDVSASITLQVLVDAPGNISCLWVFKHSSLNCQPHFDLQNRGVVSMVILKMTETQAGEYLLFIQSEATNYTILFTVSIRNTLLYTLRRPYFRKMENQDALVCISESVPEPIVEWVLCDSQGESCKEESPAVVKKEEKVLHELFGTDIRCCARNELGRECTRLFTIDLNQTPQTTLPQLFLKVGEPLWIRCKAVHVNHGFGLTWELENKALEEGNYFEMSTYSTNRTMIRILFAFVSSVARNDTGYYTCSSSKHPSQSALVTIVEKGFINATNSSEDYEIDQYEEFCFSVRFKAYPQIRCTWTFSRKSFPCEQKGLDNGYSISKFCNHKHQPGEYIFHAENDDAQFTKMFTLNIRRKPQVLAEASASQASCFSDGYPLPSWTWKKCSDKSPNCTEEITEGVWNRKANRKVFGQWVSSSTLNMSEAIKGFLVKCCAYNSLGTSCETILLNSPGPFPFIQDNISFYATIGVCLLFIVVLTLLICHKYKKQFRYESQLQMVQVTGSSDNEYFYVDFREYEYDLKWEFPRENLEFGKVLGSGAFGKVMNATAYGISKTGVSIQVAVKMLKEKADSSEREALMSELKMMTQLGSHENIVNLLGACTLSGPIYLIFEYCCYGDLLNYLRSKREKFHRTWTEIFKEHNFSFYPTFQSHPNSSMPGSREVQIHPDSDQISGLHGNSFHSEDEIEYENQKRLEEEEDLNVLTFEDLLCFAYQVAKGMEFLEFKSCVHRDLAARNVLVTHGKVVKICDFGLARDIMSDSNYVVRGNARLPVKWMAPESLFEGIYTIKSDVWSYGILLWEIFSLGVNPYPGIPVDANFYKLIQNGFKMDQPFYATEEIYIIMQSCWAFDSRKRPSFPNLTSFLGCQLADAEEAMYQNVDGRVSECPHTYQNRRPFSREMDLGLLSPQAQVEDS

[5] = molecular target: Mast/stem cell growth factor receptor Kit (Homo sapiens) (UniProt P10721); details: Compound concentration 1000.0 nM
Chain of Mast/stem cell growth factor receptor Kit (Homo sapiens) (P10721 whole entry): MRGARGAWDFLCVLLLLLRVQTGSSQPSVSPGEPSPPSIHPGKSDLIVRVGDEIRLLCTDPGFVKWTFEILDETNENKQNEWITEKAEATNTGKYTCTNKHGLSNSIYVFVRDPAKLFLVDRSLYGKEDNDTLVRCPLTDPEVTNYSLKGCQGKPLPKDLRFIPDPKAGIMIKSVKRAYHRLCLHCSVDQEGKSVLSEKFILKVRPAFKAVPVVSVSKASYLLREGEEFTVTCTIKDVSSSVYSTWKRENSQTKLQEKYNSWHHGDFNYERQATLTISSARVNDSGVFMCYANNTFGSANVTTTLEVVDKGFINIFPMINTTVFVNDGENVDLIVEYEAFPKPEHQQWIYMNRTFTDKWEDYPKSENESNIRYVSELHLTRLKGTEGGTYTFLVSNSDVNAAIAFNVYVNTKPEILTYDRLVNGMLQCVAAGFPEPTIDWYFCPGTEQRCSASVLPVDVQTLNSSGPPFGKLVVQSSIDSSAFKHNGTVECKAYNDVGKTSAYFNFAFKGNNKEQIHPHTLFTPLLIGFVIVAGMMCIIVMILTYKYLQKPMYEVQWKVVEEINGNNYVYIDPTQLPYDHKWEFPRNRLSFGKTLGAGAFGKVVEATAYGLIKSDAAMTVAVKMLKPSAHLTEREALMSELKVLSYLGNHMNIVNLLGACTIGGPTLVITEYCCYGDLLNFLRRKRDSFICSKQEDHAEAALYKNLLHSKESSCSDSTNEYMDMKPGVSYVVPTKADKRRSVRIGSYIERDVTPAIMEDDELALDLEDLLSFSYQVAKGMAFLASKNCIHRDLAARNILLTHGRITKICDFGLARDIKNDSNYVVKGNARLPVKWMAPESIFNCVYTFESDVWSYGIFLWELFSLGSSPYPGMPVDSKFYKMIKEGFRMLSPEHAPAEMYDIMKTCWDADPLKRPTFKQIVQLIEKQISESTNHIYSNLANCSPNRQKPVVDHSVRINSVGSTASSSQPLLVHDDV

[6] = molecular target: Dual specificity protein kinase CLK4 (Homo sapiens) (UniProt Q9HAZ1); details: Compound concentration 1000.0 nM
[7] = molecular target: Mast/stem cell growth factor receptor Kit (Homo sapiens) (UniProt P10721); details: Compound concentration 1000.0 nM; remark: listed apart in the source
[8] = molecular target: TGF-beta receptor type-1 (Homo sapiens) (UniProt P36897); details: Compound concentration 1000.0 nM
[9] = molecular target: Serine/threonine-protein kinase PRP4 homolog (Homo sapiens) (UniProt Q13523); details: Compound concentration 1000.0 nM
[10] = molecular target: Mu-type opioid receptor (Homo sapiens, UniProt P35372); details: Compound concentration 10.0 uM
[11] = system: ALK tyrosine kinase receptor (Homo sapiens), Q9UM73 [L1196M]; details: Compound concentration 1000.0 nM
[12] = molecular target: Serine/threonine-protein kinase 17A (Homo sapiens) (UniProt Q9UEE5); details: Compound concentration 1000.0 nM
[13] = molecular target: T1, 5-hydroxytryptamine receptor 1A (Homo sapiens) (UniProt P08908); details: Compound concentration 10.0 uM
T1 sequence (whole entry): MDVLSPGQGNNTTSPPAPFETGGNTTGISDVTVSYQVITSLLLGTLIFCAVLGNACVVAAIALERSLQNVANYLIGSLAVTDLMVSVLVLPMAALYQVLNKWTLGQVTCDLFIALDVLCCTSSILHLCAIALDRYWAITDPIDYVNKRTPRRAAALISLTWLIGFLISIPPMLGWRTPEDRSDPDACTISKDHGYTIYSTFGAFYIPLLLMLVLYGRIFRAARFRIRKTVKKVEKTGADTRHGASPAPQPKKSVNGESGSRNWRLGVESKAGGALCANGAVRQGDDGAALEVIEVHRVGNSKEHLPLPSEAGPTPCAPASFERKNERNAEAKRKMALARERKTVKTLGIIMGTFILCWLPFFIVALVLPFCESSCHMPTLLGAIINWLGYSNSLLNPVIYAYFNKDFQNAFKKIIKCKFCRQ

[14] = molecular target: Mitogen-activated protein kinase kinase kinase kinase 4 (Homo sapiens) (UniProt O95819); details: Compound concentration 1000.0 nM
[15] = molecular target: Tyrosine-protein kinase ITK/TSK (Homo sapiens) (UniProt Q08881); details: Compound concentration 1000.0 nM
[16] = molecular target: Muscarinic acetylcholine receptor M3 (Homo sapiens) (UniProt P20309); details: Compound concentration 10.0 uM
[17] = molecular target: Interleukin-1 receptor-associated kinase 4 (Homo sapiens) (UniProt Q9NWZ3); details: Compound concentration 1000.0 nM
[18] = molecular target: Histamine H4 receptor (Homo sapiens) (UniProt Q9H3N8); details: Compound concentration 10.0 uM
[19] = system: Epidermal growth factor receptor (Homo sapiens), P00533 [L858R]; details: Compound concentration 1000.0 nM
[20] = molecular target: MAP kinase-activated protein kinase 2 (Homo sapiens) (UniProt P49137); details: Compound concentration 1000.0 nM
[21] = molecular target: Hepatocyte growth factor receptor (Homo sapiens) (UniProt P08581); details: Compound concentration 1000.0 nM
Chain of Hepatocyte growth factor receptor (Homo sapiens) (P08581 whole entry): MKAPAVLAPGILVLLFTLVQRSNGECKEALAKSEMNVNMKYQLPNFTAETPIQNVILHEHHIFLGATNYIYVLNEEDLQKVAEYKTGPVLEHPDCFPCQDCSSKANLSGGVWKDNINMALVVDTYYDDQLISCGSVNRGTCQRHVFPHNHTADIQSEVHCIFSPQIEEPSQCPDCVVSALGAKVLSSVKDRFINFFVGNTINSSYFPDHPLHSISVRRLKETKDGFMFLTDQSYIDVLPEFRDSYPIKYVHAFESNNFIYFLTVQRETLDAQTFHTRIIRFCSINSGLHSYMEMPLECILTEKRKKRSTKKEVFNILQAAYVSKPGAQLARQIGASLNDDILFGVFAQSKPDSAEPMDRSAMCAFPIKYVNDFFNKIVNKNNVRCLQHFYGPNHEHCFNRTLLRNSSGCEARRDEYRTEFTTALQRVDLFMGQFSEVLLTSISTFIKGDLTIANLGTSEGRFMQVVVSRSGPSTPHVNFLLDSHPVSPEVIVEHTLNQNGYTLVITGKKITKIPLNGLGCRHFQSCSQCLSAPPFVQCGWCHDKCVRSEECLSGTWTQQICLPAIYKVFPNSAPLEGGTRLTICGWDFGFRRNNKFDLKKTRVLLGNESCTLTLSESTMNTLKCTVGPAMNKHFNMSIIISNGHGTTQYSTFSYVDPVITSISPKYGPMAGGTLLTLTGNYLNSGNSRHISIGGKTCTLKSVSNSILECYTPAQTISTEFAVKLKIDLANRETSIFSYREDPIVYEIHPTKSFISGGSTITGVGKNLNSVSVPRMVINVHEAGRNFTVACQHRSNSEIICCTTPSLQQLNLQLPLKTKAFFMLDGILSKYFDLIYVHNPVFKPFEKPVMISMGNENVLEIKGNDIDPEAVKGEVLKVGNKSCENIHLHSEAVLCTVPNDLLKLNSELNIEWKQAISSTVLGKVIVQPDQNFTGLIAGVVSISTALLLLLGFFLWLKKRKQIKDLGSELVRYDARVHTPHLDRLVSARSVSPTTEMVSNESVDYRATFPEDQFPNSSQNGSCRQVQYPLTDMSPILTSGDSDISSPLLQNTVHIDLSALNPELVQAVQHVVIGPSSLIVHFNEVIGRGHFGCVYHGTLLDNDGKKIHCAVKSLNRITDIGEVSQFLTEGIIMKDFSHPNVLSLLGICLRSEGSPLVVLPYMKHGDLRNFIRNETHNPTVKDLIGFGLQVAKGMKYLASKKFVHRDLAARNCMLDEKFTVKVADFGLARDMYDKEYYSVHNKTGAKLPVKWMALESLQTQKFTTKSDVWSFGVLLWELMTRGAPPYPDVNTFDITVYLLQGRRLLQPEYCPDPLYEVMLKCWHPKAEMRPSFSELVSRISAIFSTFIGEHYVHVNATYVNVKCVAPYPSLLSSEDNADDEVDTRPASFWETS

[22] = molecular target: Ephrin type-A receptor 5 (Homo sapiens) (UniProt P54756); details: Compound concentration 1000.0 nM
[23] = molecular target: Homeodomain-interacting protein kinase 4 (Homo sapiens) (UniProt Q8NE63); details: Compound concentration 1000.0 nM
[24] = molecular target: Platelet-derived growth factor receptor alpha (Homo sapiens) (UniProt P16234); details: Compound concentration 1000.0 nM
[25] = system: Tyrosine-protein kinase ABL1 (Homo sapiens), P00519 [Q252H]; details: Compound concentration 1000.0 nM
[26] = molecular target: Mitogen-activated protein kinase kinase kinase kinase 5 (Homo sapiens) (UniProt Q9Y4K4); details: Compound concentration 1000.0 nM
Chain of Mitogen-activated protein kinase kinase kinase kinase 5 (Homo sapiens) (Q9Y4K4 whole entry, looked up): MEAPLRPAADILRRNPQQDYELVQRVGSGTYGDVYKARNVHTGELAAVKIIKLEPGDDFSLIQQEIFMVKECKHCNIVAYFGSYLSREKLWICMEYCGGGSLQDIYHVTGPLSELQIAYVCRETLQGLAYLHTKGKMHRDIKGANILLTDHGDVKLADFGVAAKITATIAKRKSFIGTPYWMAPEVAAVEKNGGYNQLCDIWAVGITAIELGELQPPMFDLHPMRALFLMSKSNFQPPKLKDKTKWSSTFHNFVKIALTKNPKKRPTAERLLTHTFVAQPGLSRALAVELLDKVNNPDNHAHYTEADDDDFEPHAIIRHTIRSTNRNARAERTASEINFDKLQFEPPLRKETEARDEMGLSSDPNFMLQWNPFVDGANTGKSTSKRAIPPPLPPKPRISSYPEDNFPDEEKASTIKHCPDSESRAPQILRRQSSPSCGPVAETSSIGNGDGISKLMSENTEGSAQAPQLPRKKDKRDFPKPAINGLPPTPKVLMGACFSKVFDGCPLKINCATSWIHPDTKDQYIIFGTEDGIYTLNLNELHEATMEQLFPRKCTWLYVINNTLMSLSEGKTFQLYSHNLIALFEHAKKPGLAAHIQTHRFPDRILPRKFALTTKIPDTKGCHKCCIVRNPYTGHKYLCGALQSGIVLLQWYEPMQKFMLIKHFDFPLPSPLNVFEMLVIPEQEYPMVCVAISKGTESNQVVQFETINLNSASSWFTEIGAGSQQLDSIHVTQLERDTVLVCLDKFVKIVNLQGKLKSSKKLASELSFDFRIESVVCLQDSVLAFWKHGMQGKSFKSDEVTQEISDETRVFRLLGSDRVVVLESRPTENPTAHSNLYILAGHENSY

[27] = molecular target: Delta-type opioid receptor (Homo sapiens) (UniProt P41143); details: Compound concentration 10.0 uM
[28] = molecular target: Receptor-type tyrosine-protein kinase FLT3 (Homo sapiens) (UniProt P36888); details: Compound concentration 1000.0 nM
Chain of Receptor-type tyrosine-protein kinase FLT3 (Homo sapiens) (P36888 whole entry): as the sequence (P36888 whole entry, looked up, change not shown) above

[29] = molecular target: 5-hydroxytryptamine receptor 2B (Homo sapiens, UniProt P41595); details: Compound concentration 10.0 uM
[30] = molecular target: TGF-beta receptor type-2 (Homo sapiens) (UniProt P37173); details: Compound concentration 1000.0 nM
[31] = molecular target: Glycogen synthase kinase-3 beta (Homo sapiens) (UniProt P49841); details: Compound concentration 1000.0 nM
Chain of Glycogen synthase kinase-3 beta (Homo sapiens) (P49841 whole entry, looked up): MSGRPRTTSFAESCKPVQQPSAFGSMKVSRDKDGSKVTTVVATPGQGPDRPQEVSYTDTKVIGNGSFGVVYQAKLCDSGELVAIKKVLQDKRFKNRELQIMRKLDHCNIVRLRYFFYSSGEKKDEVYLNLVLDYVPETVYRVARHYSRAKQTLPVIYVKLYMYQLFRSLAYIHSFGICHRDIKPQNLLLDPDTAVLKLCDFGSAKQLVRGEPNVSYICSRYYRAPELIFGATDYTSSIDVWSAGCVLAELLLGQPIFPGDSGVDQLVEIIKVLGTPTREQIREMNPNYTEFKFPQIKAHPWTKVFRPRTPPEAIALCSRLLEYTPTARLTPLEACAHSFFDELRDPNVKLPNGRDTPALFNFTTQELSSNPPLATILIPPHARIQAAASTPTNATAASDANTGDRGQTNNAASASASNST

[32] = molecular target: Dual specificity mitogen-activated protein kinase kinase 4 (Homo sapiens) (UniProt P45985); details: Compound concentration 1000.0 nM
Chain of Dual specificity mitogen-activated protein kinase kinase 4 (Homo sapiens) (P45985 whole entry): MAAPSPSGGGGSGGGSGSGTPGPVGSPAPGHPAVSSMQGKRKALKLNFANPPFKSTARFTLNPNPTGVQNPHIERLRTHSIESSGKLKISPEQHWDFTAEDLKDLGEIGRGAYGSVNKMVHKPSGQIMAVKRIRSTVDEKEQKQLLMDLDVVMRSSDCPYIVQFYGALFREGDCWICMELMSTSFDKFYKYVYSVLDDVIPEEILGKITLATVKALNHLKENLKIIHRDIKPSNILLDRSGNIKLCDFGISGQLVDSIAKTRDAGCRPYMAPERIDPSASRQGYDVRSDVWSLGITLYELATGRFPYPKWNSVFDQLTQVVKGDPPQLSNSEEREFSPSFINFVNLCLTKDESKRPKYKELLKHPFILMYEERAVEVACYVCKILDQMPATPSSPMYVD

[33] = molecular target: RAC-alpha serine/threonine-protein kinase (Homo sapiens) (UniProt P31749); details: Compound concentration 1000.0 nM
[34] = molecular target: NUAK family SNF1-like kinase 2 (Homo sapiens) (UniProt Q9H093); details: Compound concentration 1000.0 nM
[35] = molecular target: Tyrosine-protein kinase TXK (Homo sapiens) (UniProt P42681); details: Compound concentration 1000.0 nM
[36] = molecular target: Testis-specific serine/threonine-protein kinase 3 (Homo sapiens) (UniProt Q96PN8); details: Compound concentration 1000.0 nM
[37] = molecular target: Serine/threonine-protein kinase N1 (Homo sapiens) (UniProt Q16512); details: Compound concentration 1000.0 nM
[38] = molecular target: Citron Rho-interacting kinase (Homo sapiens) (UniProt O14578); details: Compound concentration 1000.0 nM
[39] = molecular target: Dual specificity protein kinase CLK3 (Homo sapiens) (UniProt P49761); details: Compound concentration 1000.0 nM
[40] = molecular target: Ribosomal protein S6 kinase alpha-4 (Homo sapiens) (UniProt O75676); details: Compound concentration 1000.0 nM

CCCCN(CCCC)C(=O)CN1C[C@H](c2cc(OC)c3c(c2)OCO3)[C@@H](C(=O)O)[C@@H]1CC(C)(C)CCC [ABT-546]
residual activity [1]: 100%
residual activity [2]: 100%
residual activity [3]: 85.8%
residual activity [4]: 100%
residual activity [5]: 100%
residual activity [6]: 100%
residual activity [7]: 92.3%
residual activity [8]: 98.6%
residual activity [9]: 100%
inhibition [10]: 14.2%
residual activity [11]: 100%
residual activity [12]: 100%
inhibition [13]: 20.6%
residual activity [14]: 100%
residual activity [15]: 100%
inhibition [16]: -9.94%
residual activity [17]: 67.5%
inhibition [18]: -0.606%
residual activity [19]: 99.7%
residual activity [20]: 100%
residual activity [21]: 100%
residual activity [22]: 100%
residual activity [23]: 100%
residual activity [24]: 56.1%
residual activity [25]: 100%
residual activity [26]: 100%
inhibition [27]: 25.6%
residual activity [28]: 100%
inhibition [29]: -9.89%
residual activity [30]: 100%
residual activity [31]: 100%
residual activity [32]: 74.4%
residual activity [33]: 100%
residual activity [34]: 79.4%
residual activity [35]: 94.3%
residual activity [36]: 100%
residual activity [37]: 100%
residual activity [38]: 100%
residual activity [39]: 100%
residual activity [40]: 75%

CCCCN(CCCC)C(=O)CN1C[C@@H](c2cc(OC)c3c(c2)OCO3)[C@H](C(=O)O)[C@H]1CC(C)(C)CCC [A-545]
residual activity [1]: 77.3%
residual activity [2]: 96.3%
residual activity [3]: 100%
residual activity [4]: 100%
residual activity [5]: 100%
residual activity [6]: 72.4%
residual activity [7]: 94.9%
residual activity [8]: 100%
residual activity [9]: 99.3%
inhibition [10]: 58.5%
residual activity [11]: 100%
residual activity [12]: 100%
inhibition [13]: 76.3%
residual activity [14]: 88.9%
residual activity [15]: 100%
inhibition [16]: 10.3%
residual activity [17]: 94.5%
inhibition [18]: 4.1%
residual activity [19]: 100%
residual activity [20]: 84.2%
residual activity [21]: 100%
residual activity [22]: 81.9%
residual activity [23]: 100%
residual activity [24]: 100%
residual activity [25]: 100%
residual activity [26]: 100%
inhibition [27]: 41.1%
residual activity [28]: 91.9%
inhibition [29]: 76%
residual activity [30]: 98.6%
residual activity [31]: 100%
residual activity [32]: 93.3%
residual activity [33]: 85.7%
residual activity [34]: 100%
residual activity [35]: 100%
residual activity [36]: 100%
residual activity [37]: 85%
residual activity [38]: 90.5%
residual activity [39]: 100%
residual activity [40]: 97.2%
